Measurements from patent publication US20240208992A1, “MACROCYCLES AS CFTR MODULATORS” (Idorsia Pharmaceuticals Ltd, priority 2021, published 2024).

Molecular target: human F508del-CFTR (Homo sapiens, UniProt P13569, DEL508-508)
Assay: F508del-CFTR cell surface expression (corrector activity), DiscoveRx ß-galactosidase complementation chemiluminescence assay in recombinant U2OS cell line;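 also: U2OS cells co-expressing ProLink-tagged F508del-CFTR and a membrane-anchored enzyme acceptor, where more surface CFTR restores β-galactosidase activity measured by chemiluminescence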
Details: for EC50: EC50, F508del-CFTR cell surface expression; for Emax: U2OS
[1] = U2OS cells, 16h compound incubation, geomean values
[2] = in relation to Emax of corrector lumacaftor (=100%), arithmetic mean values
[3] = U2OS cells, 16h compound incubation, geomean of several measurements
[4] = in relation to the Emax of the corrector lumacaftor (=100%), U2OS cells, 16h compound incubation, arithmetic mean
[5] = U2OS cell line, 16h compound incubation, geomean values
[6] = in relation to the Emax of the corrector lumacaftor (=100%), U2OS cell line, 16h compound incubation, arithmetic mean values

Chain of human F508del-CFTR (P13569 with tags, fused parts or gaps DEL508-508): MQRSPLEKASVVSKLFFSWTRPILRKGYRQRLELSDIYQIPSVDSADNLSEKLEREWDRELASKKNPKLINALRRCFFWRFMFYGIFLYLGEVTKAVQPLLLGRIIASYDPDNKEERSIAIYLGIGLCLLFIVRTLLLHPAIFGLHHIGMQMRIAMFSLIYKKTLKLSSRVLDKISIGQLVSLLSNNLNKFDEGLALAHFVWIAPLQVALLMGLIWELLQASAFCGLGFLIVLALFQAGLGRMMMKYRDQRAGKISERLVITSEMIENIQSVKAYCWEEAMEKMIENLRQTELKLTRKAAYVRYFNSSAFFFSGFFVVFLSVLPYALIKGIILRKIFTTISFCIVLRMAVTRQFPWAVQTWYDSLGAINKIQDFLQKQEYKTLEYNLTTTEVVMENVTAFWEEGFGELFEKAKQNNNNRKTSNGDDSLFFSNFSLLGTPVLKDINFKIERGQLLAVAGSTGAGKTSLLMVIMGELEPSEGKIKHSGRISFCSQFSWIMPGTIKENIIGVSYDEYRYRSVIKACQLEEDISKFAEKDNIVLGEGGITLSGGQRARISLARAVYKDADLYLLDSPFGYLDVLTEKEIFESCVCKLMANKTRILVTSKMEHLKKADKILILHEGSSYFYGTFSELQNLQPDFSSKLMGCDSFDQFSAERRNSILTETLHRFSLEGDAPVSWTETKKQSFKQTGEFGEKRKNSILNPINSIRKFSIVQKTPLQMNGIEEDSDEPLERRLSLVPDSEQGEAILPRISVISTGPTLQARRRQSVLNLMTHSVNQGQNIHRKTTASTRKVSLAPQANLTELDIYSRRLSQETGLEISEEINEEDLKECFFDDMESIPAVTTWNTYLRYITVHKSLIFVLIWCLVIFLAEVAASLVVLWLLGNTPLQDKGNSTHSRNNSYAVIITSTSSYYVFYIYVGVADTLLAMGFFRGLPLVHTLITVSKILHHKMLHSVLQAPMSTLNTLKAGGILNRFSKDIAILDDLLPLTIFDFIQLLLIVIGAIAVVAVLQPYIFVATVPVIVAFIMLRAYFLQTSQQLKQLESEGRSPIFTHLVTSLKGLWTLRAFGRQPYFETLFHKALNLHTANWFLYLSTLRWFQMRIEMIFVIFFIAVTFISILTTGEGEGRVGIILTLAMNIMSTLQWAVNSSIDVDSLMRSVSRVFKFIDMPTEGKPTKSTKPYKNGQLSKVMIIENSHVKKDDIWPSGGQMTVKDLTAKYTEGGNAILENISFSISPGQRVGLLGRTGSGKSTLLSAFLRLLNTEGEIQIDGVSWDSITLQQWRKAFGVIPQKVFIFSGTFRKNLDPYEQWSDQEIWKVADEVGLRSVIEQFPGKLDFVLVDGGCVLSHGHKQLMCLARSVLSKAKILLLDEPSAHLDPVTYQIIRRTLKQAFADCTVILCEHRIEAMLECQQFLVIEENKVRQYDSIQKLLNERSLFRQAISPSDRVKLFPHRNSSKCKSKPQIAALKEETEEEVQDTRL

Row | Compound | EC50 [1] [nM] | Emax [2] [%] | other results
1 | COc1cc(CCNC(=O)[C@@H]2CC(=O)N(C)[C@@H](CC(C)C)C(=O)N(C)[C@H](Cc3nc(-c4ccc(F)cn4)no3)C(=O)N[C@H](Cc3ccccc3)COc3ccnc(OC)c3C(=O)N2)on1 [Example 783, (3R,6R,9S,13S)-3-benzyl-6-((3-(5-fluoropyridin-2-yl)-1,2,4-oxadiazol-5-yl)methyl)-9-isobutyl-16-methoxy-N-(2-(3-methoxyisoxazol-5-yl)ethyl)-7,10-dimethyl-5,8,11,15-tetraoxo-2,3,4,5,6,7,8,9,10,11,12,13,14,15-tetradecahydropyrido[3,4-p][1]oxa[4,7,10,14]tetraazacycloheptadecine-13-carboxamide] | 889 | 410 | 
2 | CC(C)C[C@H]1C(=O)N2CCCC[C@@H]2C(=O)N[C@H](Cc2ccccc2)COc2ccc3ncc(F)cc3c2C(=O)N[C@H](C(=O)NCCc2cnn(C3CC3)n2)CC(=O)N1C [Example 805, (9S,13S,19aR,22R)-22-benzyl-N-(2-(2-cyclopropyl-2H-1,2,3-triazol-4-yl)ethyl)-5-fluoro-13-isobutyl-12-methyl-7,11,14,20-tetraoxo-7,8,9,10,11,12,13,14,17,18,19,19a,20,21,22,23-hexadecahydro-16H-pyrido[2′,1′:6,7][1]oxa[4,7,10,14]tetraazacycloheptadecino[16,17-f]quinoline-9-carboxamide] |  |  | EC50 [3]: 191 nM; Emax [4]: 276%
3 | COc1cc(CCNC(=O)[C@@H]2CC(=O)N(C)[C@@H](CC(C)C)C(=O)N3CCCC[C@@H]3C(=O)N[C@H](Cc3ccccc3)COc3ccc4ncccc4c3C(=O)N2)on1 [Example 912, (9S,13S,19aR,22R)-22-benzyl-13-isobutyl-N-(2-(3-methoxyisoxazol-5-yl)ethyl)-12-methyl-7,11,14,20-tetraoxo-7,8,9,10,11,12,13,14,17,18,19,19a,20,21,22,23-hexadecahydro-16H-pyrido[2′,1′:6,7][1]oxa[4,7,10,14]tetraazacycloheptadecino[16,17-f]quinoline-9-carboxamide] |  |  | EC50 [3]: 272 nM; Emax [4]: 332%
4 | CC(C)C[C@H]1C(=O)N(C)C2(CCC2)C(=O)N[C@H](Cc2ccccc2)COc2cnc3ccc(F)cc3c2C(=O)N[C@H](C(=O)NCCc2cc(C3CC3)no2)CC(=O)N1C [Example 689, (3'S,7'S,13′R)-13′-Benzyl-N-(2-(3-cyclopropylisoxazol-5-yl)ethyl)-20′-fluoro-7′-isobutyl-6′,9′-dimethyl-1′,5′,8′,11′-tetraoxo-2′,3′,4′,5′,6′,7′,8′,9′,11′,12′,13′,14′-dodecahydro-1′H-spiro[cyclobutane-1,10′-[1]oxa[4,7,10,14]tetraazacycloheptadecino[17,16-c]quinoline]-3′-carboxamide] | 245 | 390 | 
5 | COc1cccc(CCNC(=O)[C@@H]2CC(=O)N(C)[C@@H](CC(C)C)C(=O)N3CCOC[C@H]3C(=O)N[C@H](Cc3ccccc3)COc3ccc4c(C)noc4c3C(=O)N2)c1 (mixture of isomers) [Example 624, (4aRS,7R,17S,21S)-7-benzyl-21-isobutyl-N-(3-methoxyphenethyl)-12,20-dimethyl-5,15,19,22-tetraoxo-1,2,4,4a,5,6,7,8,15,16,17,18,19,20,21,22-hexadecahydroisoxazolo[4′,5′:5,6]benzo[1,2-p][1,4]oxazino[3,4-f][1]oxa[4,7,10,14]tetraazacycloheptadecine-17-carboxamide] | 921 | 171 | 
6 | CCOc1cccc(CCNC(=O)[C@@H]2CC(=O)N(C)[C@@H](CC(C)C)C(=O)N3CCN(C4CC4)C[C@@H]3C(=O)N[C@H](Cc3ccccc3)COc3cnc4ccccc4c3C(=O)N2)c1 [Example 400, (9S,13S,19aR,22R)-22-benzyl-18-cyclopropyl-N-(3-ethoxyphenethyl)-13-isobutyl-12-methyl-7,11,14,20-tetraoxo-7,8,9,10,11,12,13,14,17,18,19,19a,20,21,22,23-hexadecahydro-16H-pyrazino[2′,11:6,7][1]oxa[4,7,10,14]tetraazacycloheptadecino[17,16-c]quinoline-9-carboxamide] | 164 | 292 | 
7 | COc1nccc2c1C(=O)N[C@H](C(=O)NCCc1cnn(C3CC3)c1)CC(=O)N(C)[C@@H](CC(C)C)C(=O)N1CCCC[C@@H]1C(=O)N[C@H](Cc1ccccc1)CO2 [Example 176, (7S,11S,17aR,20R)-20-benzyl-N-(2-(1-cyclopropyl-1H-pyrazol-4-yl)ethyl)-11-isobutyl-4-methoxy-10-methyl-5,9,12,18-tetraoxo-5,6,7,8,9,10,11,12,15,16,17,17a,18,19,20,21-hexadecahydro-14H-dipyrido[2,1-f:3′,4′-p][1]oxa[4,7,10,14]tetraazacycloheptadecine-7-carboxamide] |  |  | EC50 [5]: 821 nM; Emax [6]: 245%
8 | COc1cccc(CCNC(=O)[C@@H]2CC(=O)N(C)[C@@H](CC(C)C)C(=O)N(C)CC(=O)N[C@H](Cc3ccccc3)COc3cnc(OC)cc3C(=O)N2)c1 [Example 647, (3R,9S,13S)-3-benzyl-9-isobutyl-17-methoxy-N-(3-methoxyphenethyl)-7,10-dimethyl-5,8,11,15-tetraoxo-2,3,4,5,6,7,8,9,10,11,12,13,14,15-tetradecahydropyrido[4,3-p][1]oxa[4,7,10,14]tetraazacycloheptadecine-13-carboxamide] | 820 | 182 | 
9 | COCCCS(=O)(=O)N1CCN2C(=O)[C@H](CC(C)C)N(C)C(=O)C[C@@H](C(=O)NCCc3cccc(OC)c3)NC(=O)c3c(ccc4ccccc34)OC[C@@H](Cc3ccccc3)NC(=O)[C@H]2C1 [Example 743, (4aR,7R,18S,22S)-7-benzyl-22-isobutyl-N-(3-methoxyphenethyl)-3-((3-methoxypropyl)sulfonyl)-21-methyl-5,16,20,23-tetraoxo-2,3,4,4a,5,6,7,8,16,17,18,19,20,21,22,23-hexadecahydro-1H-naphtho[1,2-p]pyrazino[2,1-f][1]oxa[4,7,10,14]tetraazacycloheptadecine-18-carboxamide] | 207 | 217 | 
10 | COc1noc(CCNC(=O)[C@@H]2CC(=O)N(C)[C@@H](CC(C)C)C(=O)N(C)[C@H](Cc3nc(C(F)(F)F)no3)C(=O)N[C@H](Cc3ccccc3)COc3cc(C)nc(OC)c3C(=O)N2)c1F [Example 945, (3R,6R,9S,13S)-3-benzyl-N-(2-(4-fluoro-3-methoxyisoxazol-5-yl)ethyl)-9-isobutyl-16-methoxy-7,10,18-trimethyl-5,8,11,15-tetraoxo-6-((3-(trifluoromethyl)-1,2,4-oxadiazol-5-yl)methyl)-2,3,4,5,6,7,8,9,10,11,12,13,14,15-tetradecahydropyrido[3,4-p][1]oxa[4,7,10,14]tetraazacycloheptadecine-13-carboxamide] |  |  | EC50 [3]: 33 nM; Emax [4]: 502%
11 | CC(C)C[C@H]1C(=O)N2CCOC[C@@H]2C(=O)N[C@H](Cc2ccccc2)COc2cnc3ccccc3c2C(=O)N[C@H](C(=O)NCCc2ccc(F)cc2)CC(=O)N1C [Example 67, (9S,13S,19aR,22R)-22-benzyl-N-(4-fluorophenethyl)-13-isobutyl-12-methyl-7,11,14,20-tetraoxo-7,8,9,10,11,12,13,14,16,17,19,19a,20,21,22,23-hexadecahydro-[1,4]oxazino[3′,4′:6,7][1]oxa[4,7,10,14]tetraazacycloheptadecino[17,16-c]quinoline-9-carboxamide] |  |  | EC50 [5]: 615 nM; Emax [6]: 236%
12 | COCCC(=O)N1CCN2C(=O)[C@H](CC(C)C)N(C)C(=O)C[C@@H](C(=O)NCCc3cccc(OC)c3)NC(=O)c3c(ccc4ccccc34)OC[C@@H](Cc3ccccc3)NC(=O)[C@H]2C1 [Example 752, (4aR,7R,18S,22S)-7-benzyl-22-isobutyl-N-(3-methoxyphenethyl)-3-(3-methoxypropanoyl)-21-methyl-5,16,20,23-tetraoxo-2,3,4,4a,5,6,7,8,16,17,18,19,20,21,22,23-hexadecahydro-1H-naphtho[1,2-p]pyrazino[2,1-f][1]oxa[4,7,10,14]tetraazacycloheptadecine-18-carboxamide] | 706 | 200 | 
13 | CC(C)C[C@H]1C(=O)N(C[C@H]2CCCCO2)CC(=O)N[C@H](Cc2ccccc2)COc2ccc3ccccc3c2C(=O)N[C@H](C(=O)NCCc2ccc3c(c2)OCO3)CC(=O)N1C (racemic) [Example 162, (3RS,7S,13R)-N-(2-(benzo[d][1,3]dioxol-5-yl)ethyl)-13-benzyl-7-isobutyl-6-methyl-1,5,8,11-tetraoxo-9-(((R)-tetrahydro-2H-pyran-2-yl)methyl)-1,2,3,4,5,6,7,8,9,10,11,12,13,14-tetradecahydronaphtho[1,2-p][1]oxa[4,7,10,14]tetraazacycloheptadecine-3-carboxamide] |  |  | Emax [6]: 132%
14 | COCCCc1cnn(CCNC(=O)[C@@H]2CC(=O)N(C)[C@@H](CC(C)C)C(=O)N(C)C3(CC3)C(=O)N[C@H](Cc3ccccc3)COc3cnc4ccc(F)cc4c3C(=O)N2)c1 [Example 174, (3′S,7′S,13′R)-13′-benzyl-20′-fluoro-7′-isobutyl-N-(2-(4-(3-methoxypropyl)-1H-pyrazol-1-yl)ethyl)-6′,9′-dimethyl-1′,5′,8′,11′-tetraoxo-2′,3′,4′,5′,6′,7′,8′,9′,11′,12′,13′,14′-dodecahydro-1′H-spiro[cyclopropane-1,10′-[1]oxa[4,7,10,14]tetraazacycloheptadecino[17,16-c]quinoline]-3′-carboxamide] |  |  | EC50 [5]: 954 nM; Emax [6]: 194%
